Results from patent publication US5036059A, “1,4-Dihydropyridine-3-carboxylate derivatives” (Nippon Shinyaku Company, Limited, priority 1984, dated 1991).

Legend:
[1] = system: rats (with normal blood pressure); assay: Hypotensive action, mean blood pressure of femoral artery in unanesthetized normotensive rats, oral; type: in vivo; details: Rattus norvegicus, read-out: % Decreases in Mean Blood Pressure [at peak effect]; for inhibition in vivo at 1 mg/kg: 1 mg/kg oral; for inhibition in vivo at 3 mg/kg: 3 mg/kg oral; for inhibition in vivo at 10 mg/kg: 10 mg/kg oral
Procedure: Blood pressure of femoral artery of rats (with normal blood pressure) under unanesthetized condition was measured directly using a pressure tranducer.
The present invention compounds were given orally at doses of 1, 3 and 10 mg/kg, and changes in blood pressure were continuously recorded. Percent decreases of mean blood pressure at the peak effect were calculated. The maximum changes in mean blood pressure (%) were shown as "hypotensive action" (Table 2).
Hypotensive action of diltiazem (which is a known hypotensive drug) measured by the same method at the doses of 3, 10 and 30 mg/kg were 0, 11.2 and 33.0%, respectively. Hypotensive action of the compound of Example 4 which is one of the most representative compounds of this invention was tested using spontaneously hypertensive rats and was compared with those of Nifedipine and Diltiazem hydrochloride. The method applied was that the drugs were orally given to the rats of which systolic arterial blood pressure were higher than 180 mmHg when it was measured plethysmographically using tail arteries. (Table 3)

guinea pig heart = assay: Coronary vasodilating action, constant pressure perfusion of isolated guinea pig heart (Langendorff); details: Cavia porcellus, via coronary artery, read-out: Perfusion Increasing Rate; for activation at 0.001 mg: 10^-6 gram/heart; for activation at 0.0001 mg: 10^-7 gram/heart
Procedure: Constant pressure perfusion samples of guinea pig heart isolated by a method according to Langendorff were treated with the present invention compounds by administration via coronary artery and the effect was examined (Table 1).
With reference to coronary vasodilating action of diltiazem measured by the same method, the increasing rates in perfusion by administration of 10^-7, 10^-6 and 10^-5 gram/heart were 4, 16 and 55%, respectively.

| Compound | inhibition in vivo at 1 mg/kg [1] [%] | inhibition in vivo at 3 mg/kg [1] [%] | inhibition in vivo at 10 mg/kg [1] [%] | activation at 0.001 mg (guinea pig heart) [%] | activation at 0.0001 mg (guinea pig heart) [%] |
| --- | --- | --- | --- | --- | --- |
| CC1=C(C(=O)OC2CCN(Cc3ccccc3)CC2)C(c2cccc([N+](=O)[O-])c2)C(P2(=O)OCCCO2)=C(C)N1 (centres unmarked) [Example 3, N-Benzyl-4-piperidinyl 2,6-dimethyl-4-(3-nitrophenyl)-5-(2-oxo-1,3,2-dioxaphosphorinan-2-yl)-1,4-dihydropyridine-3-carboxylate] | 8.2 | 11.1 | 20.9 | 18 | 10 |
| CCOC(=O)C1=C(C)NC(C)=C(P2(=O)OCC(C)(C)CO2)C1c1cccc([N+](=O)[O-])c1 (centres unmarked) [Example 8, Ethyl 2,6-dimethyl-5-(5,5-dimethyl-2-oxo-1,3,2-dioxaphosphorinan-2-yl)-4-(3-nitrophenyl-1)-1,4-dihydropyridine-3-carboxylate] | 8.1 | 15.5 | 37.1 | 33 | 11 |
| CC1=C(C(=O)OCCN(C)Cc2ccccc2)C(c2cccc([N+](=O)[O-])c2)C(P2(=O)OC(C)CC(C)O2)=C(C)N1 (centres unmarked) [Example 17, 2-(N-Benzyl-N-methylamino)-ethyl 2,6-dimethyl-5-(4,6-dimethyl-2-oxo-1,3,2-dioxaphosphorinan-2-yl)-4-(3-nitrophenyl)-1,4-dihydropyridine-3-carboxylate] | 24.8 | 36.8 | 47 | 23 | 10 |
| CCC1(CC)COP(=O)(C2=C(C)NC(C)=C(C(=O)OCCN(C)Cc3ccccc3)C2c2cccc([N+](=O)[O-])c2)OC1 (centres unmarked) [Example 22, 2-(N-Benzyl-N-methylamino)-ethyl 5-(5,5-diethyl-2-oxo-1,3,2-dioxaphosphorinan-2-yl)-2,6-dimethyl-4-(3-nitrophenyl)-1,4-dihydropyridine-3-carboxylate] | 7.3 | 10.4 | 18.4 | 31 | 21 |
| CCOC(=O)C1=C(C)NC(C)=C(P2(=O)OCC(C(C)C)CO2)C1c1cccc([N+](=O)[O-])c1 (centres unmarked) [Example 32, Ethyl 2,6-dimethyl-4-(3-nitrophenyl)-5-(5-isopropyl-2-oxo-1,3,2-dioxaphosphorinan-2-yl)-1,4-dihydropyridine-3-carboxylate] | 7.8 | 21.2 | 30.5 | 77 | 24 |
| CCOC(=O)C1=C(C)NC(C)=C(P2(=O)OCC3(CCCCC3)CO2)C1c1ccccc1[N+](=O)[O-] (centres unmarked) [Example 43, Ethyl 2,6-dimethyl-4-(2-nitrophenyl)-5-(3-oxo-2,4-dioxa-3-phosphaspiro(5,5)undecan-3-yl)-1,4-dihydropyridine-3-carboxylate] | – | – | – | 56 | 12 |
| CCOC(=O)C1(C(=O)OCC)COP(=O)(C2=C(C)NC(C)=C(C(=O)OCCN(C)Cc3ccccc3)C2c2cccc([N+](=O)[O-])c2)OC1 (centres unmarked) [Example 45, 2-(N-Benzyl-N-methylamino)-ethyl 5-(5,5-diethoxycarbonyl-2-oxo-1,3,2-dioxaphosphorinan-2-yl)-2,6-dimethyl-4-(3-nitrophenyl)-1,4-dihydropyridine-3-carboxylate] | – | – | – | 29 | 10 |
| CCOC(=O)C1(C(=O)OCC)COP(=O)(C2=C(C)NC(C)=C(C(=O)OC)C2c2ccccc2[N+](=O)[O-])OC1 (centres unmarked) [Example 46, Methyl 5-(5,5-diethoxycarbonyl-2-oxo-1,3,2-dioxaphosphorinan-2-yl)-2,6-dimethyl-4-(2-nitrophenyl)-1,4-dihydropyridine-3-carboxylate] | – | – | – | 19 | 12 |
| CC1=C(C(=O)OCCN(C)Cc2ccccc2)C(c2cccc([N+](=O)[O-])c2)C(P2(=O)OC(C)(C)C(C)(C)O2)=C(C)N1 (centres unmarked) [Example 48, 2-(N-Benzyl-N-methylamino)-ethyl 2,6-dimethyl-4-(3-nitrophenyl)-5-(2-oxo-4,4,5,5-tetramethyl-1,3,2-dioxaphospholan-2-yl)-1,4-dihydropyridine-3-carboxylate] | – | – | – | 35 | 13 |
| CCCOCCOC(=O)C1=C(C)NC(C)=C(P2(=O)OC(C)(C)C(C)(C)O2)C1c1cccc([N+](=O)[O-])c1 (centres unmarked) [Example 49, 2-n-Propoxyethyl 2,6-dimethyl-4-(3-nitrophenyl)-5-(2-oxo-4,4,5,5-tetramethyl-1,3,2-dioxaphospholan-2-yl)-1,4-dihydropyridine-3-carboxylate] | – | – | – | 34 | 14 |
| COC(=O)C1=C(C)NC(C)=C(P2(=O)OCCCO2)C1c1ccccc1C(F)(F)F (centres unmarked) [Example 50, Methyl 2,6-dimethyl-5-(2-oxo-1,3,2-dioxaphosphorinan-2-yl)-4-(2-trifluoromethylphenyl)-1,4-dihydropyridine-3-carboxylate] | 42.3 | 44.3 | 47.2 | 46 | 15 |
| CC1=C(C(=O)OCCN(C)Cc2ccccc2)C(c2ccccc2C(F)(F)F)C(P2(=O)OCCCO2)=C(C)N1 (centres unmarked) [Example 52] | 18.4 | 37.2 | 42.8 | 62 | 10 |
| COC(=O)C1=C(C)NC(C)=C(P2(=O)OCCCO2)C1c1ccccc1OC(F)F (centres unmarked) [Example 53, Methyl 4-(2-difluoromethoxyphenyl)-2,6-dimethyl-5-(2-oxo-1,3,2-dioxaphosphorinan-2-yl)-1,4-dihydropyridine-3-carboxylate] | 24.5 | 45.4 | 49.7 | 25 | 16 |
| COC(=O)C1=C(C)NC(C)=C(P2(=O)OCCCO2)C1c1cccc(Cl)c1Cl (centres unmarked) [Example 56, Methyl 4-(2,3-dichlorophenyl)-2,6-dimethyl-5-(2-oxo-1,3,2-dioxaphosphorinan-2-yl)-1,4-dihydropyridine-3-carboxylate] | – | – | – | 75 | 55 |
| CCOC(=O)C1=C(C)NC(C)=C(P2(=O)OCCCO2)C1c1cccc(Cl)c1Cl (centres unmarked) [Example 57, Ethyl 4-(2,3-dichlorophenyl)-2,6-dimethyl-5-(2-oxo-1,3,2-dioxaphosphorinan-2-yl)-1,4-dihydropyridine-3-carboxylate] | – | – | – | 17 | 11 |
| CC1=C(C(=O)OCCN(C)Cc2ccccc2)C(c2cccc(Cl)c2Cl)C(P2(=O)OCC(C)(C)CO2)=C(C)N1 (centres unmarked) [Example 59, 2-(N-Benzyl-N-methylamino)-ethyl 4-(2,3-dichlorophenyl)-2,6-dimethyl-5-(5,5-dimethyl-2-oxo-1,3,2-dioxaphosphorinan-2-yl)-1,4-dihydropyridine-3-carboxylate] | 7.1 | 29.1 | 35.1 | 33 | 24 |
